Among the data in patent publication US9409952B2, “Peptide-compound cyclization method” (Chugai Seiyaku Kabushiki Kaisha, priority 2011, dated 2016) are Papp and microsomal CLint values, retold here.

Like-named read-outs stand apart in the source and are kept apart here. Starred links: 1 amine or outer side, 2 acyl side, 3 side chain; linkers in the order of their positions; H or OH if unused. Positions of bridges follow the written chain, without caps; N, C: chain ends. Non-standard residues stand in square brackets, D forms with d. Residues, ends and D or L forms follow the SMILES beside them. *: point of attachment. Phe(4-CF3) = N[C@@H](Cc1ccc(C(F)(F)F)cc1)C(=O)O; NMeF = CN[C@@H](Cc1ccccc1)C(=O)O; NMeI = CC[C@H](C)[C@H](NC)C(=O)O; NMeβAla = CN(CCC(=O)[*:2])[*:1]; Aoc(2) = CCCCCC[C@H](N)C(=O)O; NMeL = CN[C@@H](CC(C)C)C(=O)O; NMeV = CN[C@H](C(=O)O)C(C)C; NMeA = CN[C@@H](C)C(=O)O; Piperidide = C1CCN(*)CC1; dNMeA = CN[C@H](C)C(=O)O; β3hA = C[C@H](N)CC(=O)O; Sar = CNCC(=O)O; tBu = CC(C)(C)*

A short description of series [1]: PAMPA (parallel artificial membrane permeability assay). Format: in vitro ADME. The conditions noted are these: PAMPA. The essentials:
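Artificial membrane was 10% (w/v) egg lecithin plus 0.5% (w/v) cholesterol in dodecane on a PVDF filter. A 10 mM DMSO stock was added at 0.5% (v/v) to donor buffer (50 mM MOPSO, pH 6.5, 5.0% glycocholic acid). After 18 h at 37 °C, LC/MS or LC/UV gave donor and acceptor levels for Pe.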
(In general: PAMPA measures passive passage across an artificial lipid membrane.)

Series [2] is described as follows: Metabolic stability in human hepatic microsome. Format: in vitro ADME. Conditions: microsomes.
Setting [3] is: membrane permeation rate (Pe), 50 mM MOPSO buffer pH 6.5 with 5.0% glycocholic acid, 37° C., 18 hours, read-out: iPAMPA Pe.
[4] abbreviates: pH 7.4, human hepatic microsome, NADPH(+), read-out: CL NADPH(+).

Consider `CC[C@H](C)[C@@H]1NC(=O)CCN(C)C(=O)C[C@@H](C(=O)N2CCCCC2)NC(=O)[C@H](Cc2ccccc2)N(C)C(=O)[C@H](CC(C)C)N(C)C(=O)[C@H](C)N(C)C(=O)[C@H](Cc2ccccc2)N(C)C(=O)[C@H]([C@@H](C)O)NC(=O)[C@H](CC(C)C)N(C)C(=O)[C@H](C)N(C)C(=O)[C@H](CC(C)C)N(C)C1=O` [DP-159] ([NMeβAla]I[NMeL][NMeA][NMeL]T[NMeF][NMeA][NMeL][NMeF]D-Piperidide; lactam N-11), for which the Papp at 18 hours, 50 µM in series [1] (setting [3]) worked out at 39 ×10⁻⁶ cm/s. In addition, the microsomal CLint at 1 uM in series [2] (setting [4]) amounted to 54 µL/min/mg.
Consider `CC(C)C[C@@H]1NC(=O)[C@@H](C)N(C)C(=O)C[C@@H](C(=O)N2CCCCC2)NC(=O)[C@H](CC(C)C)N(C)C(=O)[C@H](Cc2ccccc2)N(C)C(=O)[C@H](CC(C)C)NC(=O)[C@H](Cc2ccccc2)N(C)C(=O)[C@H](C)N(C)C(=O)[C@H]([C@@H](C)O)NC1=O` [DP-127] ([dNMeA]LT[NMeA][NMeF]L[NMeF][NMeL]D-Piperidide; lactam N-9), for which, in series [1] (setting [3]), the Papp at 18 hours, 50 µM is 47 ×10⁻⁶ cm/s. Further, the microsomal CLint at 1 uM in series [2] (setting [4]) was 194 µL/min/mg.
On to `CC[C@H](C)[C@@H]1NC(=O)[C@H](C)NC(=O)C[C@@H](C(=O)N(C)[C@@H](Cc2ccccc2)C(=O)N(C)[C@@H](Cc2ccccc2)C(=O)N[C@@H](C)C(=O)N2CCCCC2)NC(=O)[C@H](C)NC(=O)[C@H](C)N(C)C(=O)[C@H](CC(C)C)N(C)C(=O)CN(C)C(=O)[C@H]([C@@H](C)O)NC(=O)[C@H](C(C)C)N(C)C(=O)[C@H](Cc2ccccc2)N(C)C1=O` [DP-389] (AI[NMeF][NMeV]T[Sar][NMeL][NMeA]AD[NMeF][NMeF]A-Piperidide; lactam N-10), for which the Papp at 18 hours, 50 µM in series [1] (setting [3]) is 15 ×10⁻⁶ cm/s. In series [2] (setting [4]), the microsomal CLint at 1 uM came out at 14 µL/min/mg.
`CC[C@H](C)[C@H]1C(=O)NCC(=O)N[C@H](C(=O)N2CCCCC2)CC(=O)N(C)[C@H](C)C(=O)N[C@@H](Cc2ccccc2)C(=O)N(C)[C@@H](CC(C)C)C(=O)N[C@@H](COC(C)(C)C)C(=O)N[C@@H](Cc2ccccc2)C(=O)N2CCC[C@H]2C(=O)N[C@@H]([C@@H](C)O)C(=O)N[C@@H](CC(C)C)C(=O)N(C)[C@@H](C)C(=O)N1C` [DP-62] ([dNMeA]F[NMeL]S(tBu)FPTL[NMeA][NMeI]GD-Piperidide; lactam N-12) showed a Papp at 18 hours, 50 µM in series [1] (pH 6.5) of 33 ×10⁻⁶ cm/s. The microsomal CLint at 1 uM in series [2] (human, pH 7.4, CL NADPH(+)) was found to be 22 µL/min/mg.
For the molecule `CC(C)C[C@H]1C(=O)N(C)[C@@H](CC(C)C)C(=O)N(C)[C@@H](Cc2ccccc2)C(=O)N(C)[C@@H](CC(C)C)C(=O)N[C@H](C(=O)N(C)[C@@H](Cc2ccccc2)C(=O)N[C@@H](C)C(=O)N2CCCCC2)CC(=O)N(C)CC(=O)N[C@@H]([C@@H](C)O)C(=O)N(C)[C@@H](Cc2ccccc2)C(=O)N(C)[C@@H](CC(C)C)C(=O)N[C@@H](C)C(=O)N1C` [DP-493] ([Sar]T[NMeF][NMeL]A[NMeL][NMeL][NMeF][NMeL]D[NMeF]A-Piperidide; lactam N-10), in series [1] (setting [3]), the Papp at 18 hours, 50 µM was found to be 2.4 ×10⁻⁶ cm/s. In addition, the microsomal CLint at 1 uM in series [2] (setting [4]) amounted to 52 µL/min/mg.
The molecule `CC[C@H](C)[C@@H]1NC(=O)[C@H](C)NC(=O)C[C@H](C)NC(=O)[C@H](CC(C)C)NC(=O)[C@H](CC(C)C)NC(=O)[C@H](C(C)C)NC(=O)[C@H](C)N(C)C(=O)[C@H](Cc2ccc(C(F)(F)F)cc2)NC(=O)CNC(=O)[C@H]([C@@H](C)O)NC(=O)[C@H](CC(C)C)N(C)C(=O)[C@@H]2CCCN2C1=O` [DP-807] (cyclo(AIP[NMeL]TG[Phe(4-CF3)][NMeA]VLL[β3hA])) gave a Papp at 18 hours, 50 µM in series [1] (pH 6.5) of 15 ×10⁻⁶ cm/s. The microsomal CLint at 1 uM in series [2] (human, pH 7.4, CL NADPH(+)) stood at 81 µL/min/mg.
For the molecule `CC(C)C[C@@H]1NC(=O)[C@H](CC(C)C)N(C)C(=O)[C@H]([C@@H](C)O)NC(=O)[C@H](Cc2ccccc2)N(C)C(=O)CN(C)C(=O)[C@H](CC(C)C)N(C)C(=O)[C@@H](C(C)C)NC(=O)C[C@@H](C(=O)N2CCCCC2)NC1=O` [DP-714] ([dV][NMeL][Sar][NMeF]T[NMeL]LD-Piperidide; lactam N-8), in series [1] (setting [3]), the Papp at 18 hours, 50 µM amounted to 31 ×10⁻⁶ cm/s. Besides, in series [2] (setting [4]), the microsomal CLint at 1 uM turned out to be 145 µL/min/mg.
In the same order, the values of `CCCCCC[C@@H]1NC(=O)[C@H](Cc2ccccc2)N(C)C(=O)[C@H](C)N(C)C(=O)C[C@H](C)NC(=O)[C@H](C(C)C)N(C)C(=O)[C@H](COC(C)(C)C)NC(=O)[C@H](C)N(C)C(=O)CN(C)C(=O)[C@H]([C@@H](C)O)NC(=O)[C@H](CC(C)C)N(C)C1=O` [DP-822] (cyclo([Aoc(2)][NMeL]T[Sar][NMeA]S(tBu)[NMeV][β3hA][NMeA][NMeF])) are 37 ×10⁻⁶ cm/s and 518 µL/min/mg.
Taken in the same sequence, the figures for `CC[C@H](C)[C@H](NC(=O)[C@H](Cc1ccccc1)N(C)C(=O)[C@@H](NC(=O)[C@H](C)NC(=O)[C@H](CC(C)C)N(C)C(=O)[C@@H]1CC(=O)N(C)[C@@H](C)C(=O)N(C)[C@@H](CC(C)C)C(=O)N(C)[C@@H](Cc2ccccc2)C(=O)N[C@@H]([C@@H](C)O)C(=O)N(C)[C@@H](CC(C)C)C(=O)N(C)[C@@H](CC(C)C)C(=O)N[C@@H]([C@@H](C)CC)C(=O)N(C)[C@@H](CC(C)C)C(=O)N1)C(C)C)C(=O)N1CCCCC1` [DP-938] ([NMeA][NMeL][NMeF]T[NMeL][NMeL]I[NMeL]D[NMeL]AV[NMeF]I-Piperidide; lactam N-9) were 0.1 ×10⁻⁶ cm/s and 8 µL/min/mg.
